Experimental data published in patent publication US12371454B2, “Cyclic peptide compound having Kras inhibitory action” (priority 2019, dated 2025).
Starred links: 1 amine or outer side, 2 acyl side, 3 side chain; linkers in the order of their positions; H or OH if unused. Positions of bridges follow the written chain, without caps; N, C: chain ends. Non-standard residues stand in square brackets, D forms with d. Residues, ends and D or L forms follow the SMILES beside them. *: point of attachment. hPhe(3-Cl-4-CF3) = N[C@@H](CCc1ccc(C(F)(F)F)c(Cl)c1)C(=O)O; hPhe(4-CF3) = N[C@@H](CCc1ccc(C(F)(F)F)cc1)C(=O)O; X46 = COc1cncc(C[C@@H](C(=O)[*:2])N(C)[*:1])c1; NMePhe(4-Cl) = CN[C@@H](Cc1ccc(Cl)cc1)C(=O)O; NMePhe(2-CN) = CN[C@@H](Cc1ccccc1C#N)C(=O)O; NMedβ3hAla = C[C@H](CC(=O)[*:2])N(C)[*:1]; Phe(3-Cl) = N[C@@H](Cc1cccc(Cl)c1)C(=O)O; NMeGly(cPent) = CN[C@H](C(=O)O)C1CCCC1; Phe(3-I) = N[C@@H](Cc1cccc(I)c1)C(=O)O; NMeCha = CN[C@@H](CC1CCCCC1)C(=O)O; Azetidine(3,3-F2) = FC1(F)CN(*)C1; NMeChg = CN[C@H](C(=O)O)C1CCCCC1; NMeF = CN[C@@H](Cc1ccccc1)C(=O)O; dNMeF = CN[C@H](Cc1ccccc1)C(=O)O; N(CH2CH2)2CF2 = FC1(F)CCN(*)CC1; NMeβAla = CN(CCC(=O)[*:2])[*:1]; NMeD = CN[C@@H](CC(=O)O)C(=O)O; NMeL = CN[C@@H](CC(C)C)C(=O)O; NMeV = CN[C@H](C(=O)O)C(C)C; d(β3hA) = C[C@@H](N)CC(=O)O; NMeA = CN[C@@H](C)C(=O)O; NMeAib = CNC(C)(C)C(=O)O; Nle = CCCC[C@H](N)C(=O)O; Piperidide = C1CCN(*)CC1; Pyrrolidide = C1CCN(*)C1; dNMeA = CN[C@H](C)C(=O)O; Ac5c = NC1(C(=O)O)CCCC1; Aze = O=C(O)[C@@H]1CCN1; Sar = CNCC(=O)O

Target: T1, Kras and SOS1 (biotin-tagged human Kras loaded with GDP, His-tagged human SOS1) (Homo sapiens, UniProt P01116, G12D)
T1 construct: made in house; host or cells: E. coli (stated for Kras only)
T1 sequence (P01116 1-188 isoform P01116-2 G12D): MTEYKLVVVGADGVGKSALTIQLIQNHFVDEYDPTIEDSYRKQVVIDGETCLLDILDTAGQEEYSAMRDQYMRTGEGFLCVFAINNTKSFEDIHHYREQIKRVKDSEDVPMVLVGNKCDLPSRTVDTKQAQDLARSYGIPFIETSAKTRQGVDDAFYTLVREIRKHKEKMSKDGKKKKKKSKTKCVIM
Test: Protein-protein interaction inhibition between Kras and SOS1 (KrasGl2D-SOS PPI) using AlphaScreen
Format: binding
Details: AlphaScreen; biotin-tagged human Kras loaded with GDP, His-tagged human SOS1; read-out: KRAS G12D-SOS PPI IC50
Summary of the method: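 Binding between SOS1 and Kras is detected as bead-proximity luminescence: illuminate Ni-conjugated donors (680 nm), collect 520-620 nm emission from streptavidin-conjugated acceptors; Kras carries biotin and GDP loaded after purification, SOS1 carries a His tag.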

CC[C@H](C)[C@@H]1NC(=O)[C@H](C)N(C)C(=O)C[C@@H](C(=O)N2CCCCC2)NC(=O)[C@H](C(C)C)N(C)C(=O)[C@H](Cc2ccccc2)N(C)C(=O)[C@H](CC(C)C)N(C)C(=O)[C@H](CCc2ccc(C(F)(F)F)cc2)NC(=O)CN(C)C(=O)[C@H](Cc2ccc(Cl)cc2)N(C)C(=O)CN(C)C(=O)CN(C)C1=O [Compound 752] ([NMeA]I[Sar][Sar][NMePhe(4-Cl)][Sar][hPhe(4-CF3)][NMeL][NMeF][NMeV]D-Piperidide; lactam N-11)
IC50: 200 nM

CC[C@H](C)[C@@H]1NC(=O)CCN(C)C(=O)[C@@H](Cc2ccccc2)N(C)C(=O)[C@H](C2CCCC2)N(C)C(=O)C2(CCCC2)NC(=O)[C@@H]2CCCN2C(=O)[C@H](CCc2ccc(C(F)(F)F)c(Cl)c2)NC(=O)CN(C)C(=O)[C@H](CC2CCCCC2)N(C)C(=O)CN(C)C(=O)CN(C)C1=O [Compound 753] (cyclo([Ac5c][NMeGly(cPent)][dNMeF][NMeβAla]I[Sar][Sar][NMeCha][Sar][hPhe(3-Cl-4-CF3)]P))
IC50: 35 nM

CC[C@H](C)[C@@H]1NC(=O)[C@H](C)N(C)C(=O)C[C@@H](C(=O)N2CCCC2)NC(=O)[C@H](CC(C)C)N(C)C(=O)[C@H](Cc2ccccc2)N(C)C(=O)[C@H](CC(C)C)NC(=O)[C@H](Cc2cccc(Cl)c2)NC(=O)CN(C)C(=O)[C@H](Cc2ccc(Cl)cc2)N(C)C(=O)CN(C)C(=O)CN(C)C1=O [Compound 758] ([NMeA]I[Sar][Sar][NMePhe(4-Cl)][Sar][Phe(3-Cl)]L[NMeF][NMeL]D-Pyrrolidide; lactam N-11)
IC50: 140 nM

CC[C@H](C)[C@@H]1NC(=O)[C@H](CC(C)C)N(C)C(=O)C[C@@H](C(=O)N(C)C)N(C)C(=O)[C@H](C2CCCC2)N(C)C(=O)C2(CCCC2)NC(=O)[C@H](CC(=O)N2CC(F)(F)C2)N(C)C(=O)[C@H](CCc2ccc(C(F)(F)F)c(Cl)c2)NC(=O)CN(C)C(=O)[C@H](CC2CCCCC2)N(C)C(=O)[C@@H]2CCN2C(=O)[C@H](C)N(C)C1=O [Compound 761] ([NMeL]I[NMeA][Aze][NMeCha][Sar][hPhe(3-Cl-4-CF3)][NMeD](Azetidine(3,3-F2))[Ac5c][NMeGly(cPent)][NMeD]-NMe2; lactam N-11)
IC50: 0.57 nM

CCCC[C@@H]1NC(=O)C(C)(C)N(C)C(=O)[C@H](CCCC)NC(=O)[C@H](Cc2cccc(I)c2)NC(=O)CN(C)C(=O)[C@H](Cc2ccc(Cl)cc2)N(C)C(=O)CN(C)C(=O)CN(C)C(=O)[C@H]([C@@H](C)CC)NC(=O)[C@H](CC(C)C)N(C)C(=O)C[C@@H](C(=O)N2CCCCC2)N(C)C1=O [Compound 765] ([NMeL]I[Sar][Sar][NMePhe(4-Cl)][Sar][Phe(3-I)][Nle][NMeAib][Nle][NMeD]-Piperidide; lactam N-11)
IC50: 50 nM

CC[C@H](C)[C@@H]1NC(=O)[C@H](CC(C)C)N(C)C(=O)C[C@@H](C)NC(=O)[C@H](C(C)C)N(C)C(=O)C2(CCCC2)NC(=O)[C@@H]2CCCN2C(=O)[C@H](CCc2ccc(C(F)(F)F)c(Cl)c2)NC(=O)CN(C)C(=O)[C@H](Cc2ccccc2C#N)N(C)C(=O)CN(C)C(=O)CN(C)C1=O [Compound 767] (cyclo([Ac5c][NMeV][d(β3hA)][NMeL]I[Sar][Sar][NMePhe(2-CN)][Sar][hPhe(3-Cl-4-CF3)]P))
IC50: 24 nM

CC[C@H](C)[C@@H]1NC(=O)[C@H](CC(C)C)N(C)C(=O)C[C@@H](C(=O)N2CCCCC2)N(C)C(=O)[C@H](C2CCCCC2)N(C)C(=O)C2(CCCC2)NC(=O)[C@H](Cc2cncc(OC)c2)N(C)C(=O)[C@H](CCc2ccc(C(F)(F)F)c(Cl)c2)NC(=O)CN(C)C(=O)[C@H](CC2CCCCC2)N(C)C(=O)[C@@H]2CCN2C(=O)CN(C)C1=O [Compound 770] ([NMeL]I[Sar][Aze][NMeCha][Sar][hPhe(3-Cl-4-CF3)][X46][Ac5c][NMeChg][NMeD]-Piperidide; lactam N-11)
IC50: 20 nM

CC[C@H](C)[C@@H]1NC(=O)[C@H](C)N(C)C(=O)C[C@@H](C)NC(=O)[C@H](C(C)C)N(C)C(=O)C2(CCCC2)NC(=O)[C@@H]2CCCN2C(=O)[C@H](CCc2ccc(C(F)(F)F)c(Cl)c2)NC(=O)[C@@H](C)N(C)C(=O)[C@H](CC2CCCCC2)N(C)C(=O)CN(C)C(=O)CN(C)C1=O [Compound 773] (cyclo([Ac5c][NMeV][d(β3hA)][NMeA]I[Sar][Sar][NMeCha][dNMeA][hPhe(3-Cl-4-CF3)]P))
IC50: 140 nM

CC[C@H](C)[C@@H]1NC(=O)[C@H](CC(C)C)N(C)C(=O)C[C@@H](C)N(C)C(=O)[C@H](C2CCCC2)N(C)C(=O)C2(CCCC2)NC(=O)[C@H](CC(=O)N2CCC(F)(F)CC2)N(C)C(=O)[C@H](CCc2ccc(C(F)(F)F)c(Cl)c2)NC(=O)CN(C)C(=O)[C@H](CC2CCCCC2)N(C)C(=O)[C@@H]2CCN2C(=O)[C@H](C)N(C)C1=O [Compound 777] (cyclo([Ac5c][NMeGly(cPent)][NMedβ3hAla][NMeL]I[NMeA][Aze][NMeCha][Sar][hPhe(3-Cl-4-CF3)][NMeD](N(CH2CH2)2CF2)))
IC50: 330 nM
